Values quoted from earlier work, collected in patent US20110052727A1, “Anti Influenza Nutritional Supplements” (priority 2009, published 2011).
Where two headings read alike, the source gives them in different places.

Tests used:
[1] = test system: influenza A/Kumamoto/1/65 virus
MDCK cells [2] = details: up to 1 mM
[3] = test system: influenza A/Chile/1/83 (H1N1) virus; details: MDCK cells; read-out: 50% effective inhibition concentration (EC50)
[4] = test system: influenza A/Chile/1/83 (H1N1) virus; details: 500 μM
neuraminidase = details: read-out: concentration for reduction of half enzymatic activity (neuraminidase)
MDCK cells [5] = details: read-out: dose that reduced cell viability about 50% (CC50)
[6] = test system: influenza A/Chile/1/83 (H1N1) virus; details: compared with ECG and EGC
MDCK cells [7] = test system: MDCK cells
[8] = test system: Influenza A Virus (Strain A/Yamagata/120/86 H1N1); details: 1.5 μM; 60 min treatment
influenza A Bangkok 1/79 = details: Se- vs Se+ conditions; 24 hours post infection
[9] = test system: influenza A/Bangkok/1/79 virus; details: selenium adequate diet, vs deficient diet still severe at day 21
[10] = test system: influenza virus A/Puerto Rico/8/34 (H1N1)
[11] = test system: influenza virus A/Udorn/317/72(H3N2); details: quercetin orally 1 mg/day for 5 consecutive days
MDCD cells = details: 100 μg/ml

For `CC1(C)[C@@H](O[C@H]2O[C@H](C(=O)O)[C@@H](O)[C@H](O)[C@H]2O[C@@H]2O[C@H](C(=O)O)[C@@H](O)[C@H](O)[C@H]2O)CC[C@]2(C)[C@H]3C(=O)C=C4[C@@H]5C[C@@](C)(C(=O)O)CC[C@]5(C)CC[C@@]4(C)[C@]3(C)CC[C@@H]12` [Glycyrrhizin], the survival ([1]; 10 mg/kg 1 day before and 1 and 4 days post infection, 10-50% lethal doses, saline controls no survivors) is given as “survived over the 21-day experimental period”, the “virus titers in the lungs, times lower than control mice” value ([1]; 2 to 6 days after the infection) is given as “more than 10 times” and the “viral activity in the lungs” value ([1]; day 6) is given as “not detected”.
In the case of `NC(=O)c1c[se]c([C@@H]2O[C@H](CO)[C@@H](O)[C@H]2O)n1` [Selenazofurin, selenazofurin], the “cytotoxic effect on cells” value (MDCK cells [2]) is listed as “no cytotoxic effect”.
In the case of `O=C/C=C/c1ccccc1` [CA, trans-cinnamaldehyde], the “virus yield of control (maximum inhibitory effect)” value (influenza A/PR/8 virus; 40 μM, treatment given 3 hours post infection) is given as 29.7% and the virus yield (influenza A/PR/8 virus; 200 μM) is given as “undetectable level”.
For (−)-epigallocatechin gallate [EGCG], the EC50 [3] is listed as 22 to 28 µM, the “inhibition of viral RNA synthesis” value [4] is listed as “about 80%” and the IC50 (neuraminidase) is listed as about 350 µM. For the same compound, the CC50 (MDCK cells [5]) was 275 ± 22.8 µM, the hemagglutination inhibition activity [6] was “most effective” and the “toxicity relative to derivatives” value (MDCK cells [7]) was “less toxic than most of its derivatives”. For the same compound, the “inhibition of plaque forming activity” value [8] was about 100%.
For `[Se]` [selenium, Selenium], the influenza-induced apoptosis (influenza A Bangkok 1/79) is listed as “Se deficiency enhanced influenza-induced apoptosis” and the lung pathology [9] is listed as “began to diminish after day 6”.
For `O=c1c(O)c(-c2ccc(O)c(O)c2)oc2cc(O)cc(O)c12` [quercetin, Quercetin], the “decrease of mortality in the control group (infected and did not exercise)” value ([10]; quercetin 12.5 mg/kg via gavage for 7 days before viral challenge, 21 days monitoring) is listed as 22%, the “susceptibility to infection (morbidity, mortality, symptom severity on days 5-7) associated with stressful exercise” value ([10]; quercetin 12.5 mg/kg via gavage for 7 days, P<0.05) is listed as “offset the increase in susceptibility to infection” and the “epithelial damage and leukocytic influx” value [11] is listed as “significantly reduced”. The “superoxide radicals production levels” value [11] was “significantly reduced their levels” and the “lipid peroxidation (LPO) products level after supplementation (raised by 85% in influenza group vs normal control)” value ([11]; P<0.05) was 43%.
For `C[C@@H]1O[C@@H](Oc2c(-c3ccc(O)c(O)c3)oc3cc(O)cc(O)c3c2=O)[C@H](O)[C@H](O)[C@H]1O` [Q3R, quercetin 3-rhamnoside], the antiviral activity (influenza A/WS/33 virus; 10 μg/ml, 2 days incubation) is listed as “about 66%”, the antiviral activity (influenza A/WS/33 virus; 100 μg/ml, 2 days incubation) is listed as “about 86%” and the cell viability (MDCD cells) is listed as “about 100%”.
In the case of `CCOC(=O)C1=C[C@@H](OC(CC)CC)[C@H](NC(C)=O)[C@@H](N)C1` [Oseltamivir, reference compound], the antiviral activity (influenza A/WS/33 virus; 100 μg/ml, 2 days incubation) is listed as “about 58%”, the antiviral activity (influenza A/WS/33 virus; concentrations of less than 10 μg/ml) is listed as “less than 49%” and the cell viability (MDCD cells) is listed as “about 100%”.
